Patent US20250304551A1 (SHANGHAI APEIRON THERAPEUTICS COMPANY LIMITED, priority 2022, published 2025)

How the values were obtained:
[1] = biological target: T1, Human KIF18A (amino acid sequence 1-417) (Homo sapiens, UniProt Q8NI77); assay: Enzyme activity detection experiment (ADP-Glo, KIF18A with tubulin and ATP); format: biochemical; details: tubulin 60 μg/mL, ATP 25 μM, KIF18A protein 2.5 nM, 120 minutes at ambient temperature, ADP-Glo chemiluminescence
T1 construct: purchased Viva Biotech (Shanghai) Ltd
T1 sequence (Q8NI77 1-417): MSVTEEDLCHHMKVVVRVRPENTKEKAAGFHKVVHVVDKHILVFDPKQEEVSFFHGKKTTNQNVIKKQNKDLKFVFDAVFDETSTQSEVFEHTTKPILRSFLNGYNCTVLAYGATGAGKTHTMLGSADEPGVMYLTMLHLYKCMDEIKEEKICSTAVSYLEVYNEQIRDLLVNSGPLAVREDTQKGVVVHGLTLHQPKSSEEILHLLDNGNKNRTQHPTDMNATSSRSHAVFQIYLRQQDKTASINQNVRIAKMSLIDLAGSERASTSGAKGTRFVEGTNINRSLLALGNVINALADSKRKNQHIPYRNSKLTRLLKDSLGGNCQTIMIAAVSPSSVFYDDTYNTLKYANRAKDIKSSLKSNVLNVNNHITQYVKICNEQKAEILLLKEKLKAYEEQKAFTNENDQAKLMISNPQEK
T1 sequence (Q2XVP4 whole entry partner): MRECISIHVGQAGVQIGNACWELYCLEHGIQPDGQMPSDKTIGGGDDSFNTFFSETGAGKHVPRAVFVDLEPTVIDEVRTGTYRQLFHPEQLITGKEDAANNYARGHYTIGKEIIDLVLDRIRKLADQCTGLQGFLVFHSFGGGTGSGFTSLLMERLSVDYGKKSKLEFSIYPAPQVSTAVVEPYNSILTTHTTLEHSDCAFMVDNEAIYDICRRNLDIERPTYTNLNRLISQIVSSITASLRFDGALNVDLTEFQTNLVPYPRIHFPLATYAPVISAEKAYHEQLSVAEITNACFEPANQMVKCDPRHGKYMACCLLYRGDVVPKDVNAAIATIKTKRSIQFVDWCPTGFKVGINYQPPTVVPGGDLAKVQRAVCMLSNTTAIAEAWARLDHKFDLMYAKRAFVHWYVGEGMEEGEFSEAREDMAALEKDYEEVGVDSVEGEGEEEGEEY
T1 sequence (P02554 whole entry partner): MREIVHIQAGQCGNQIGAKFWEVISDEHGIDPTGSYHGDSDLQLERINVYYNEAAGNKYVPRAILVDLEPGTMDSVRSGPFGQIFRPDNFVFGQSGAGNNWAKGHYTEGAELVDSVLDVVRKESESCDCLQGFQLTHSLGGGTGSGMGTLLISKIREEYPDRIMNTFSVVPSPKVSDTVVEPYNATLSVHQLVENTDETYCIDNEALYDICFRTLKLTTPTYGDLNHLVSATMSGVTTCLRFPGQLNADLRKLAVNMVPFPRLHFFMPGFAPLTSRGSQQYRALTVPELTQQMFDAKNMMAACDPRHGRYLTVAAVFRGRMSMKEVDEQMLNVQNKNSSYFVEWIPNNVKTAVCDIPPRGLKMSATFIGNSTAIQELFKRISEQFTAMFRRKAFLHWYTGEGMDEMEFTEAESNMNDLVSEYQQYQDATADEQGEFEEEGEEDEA
Experimental: Materials: Human KIF18A (amino acid sequence 1-417) was obtained from Viva Biotech (Shanghai) Ltd., and the ADP-Glo™ protein kinase kit was acquired from Promega, USA. Tubulin was sourced from Cytoskeleton, USA, while a 384-well assay plate and the Envision multifunctional microplate reader were obtained from PerkinElmer, USA.
Enzyme activity detection: The compound powder in DMSO was firstly dissolved to prepare a 10 mM stock solution. Next, gradient dilutions were prepared in the microplate to achieve final concentrations of […]. Sequentially, 2.5 μL of tubulin (60 μg/mL), the compound, ATP (25 μM), and KIF18A protein (2.5 nM) were added to each well, and the reaction was incubated at ambient temperature for 120 minutes. After the reaction, 10 μL of ADP-Glo™ reagent was added to each well and incubated at ambient temperature for 30 minutes. Subsequently, 20 μL of detection reagent was added to each well and incubated for an additional 30 minutes in the dark. Finally, chemiluminescence detection was performed using the PerkinElmer Envision multifunctional microplate reader.

OVCAR3 cells = assay: Cell proliferation activity test, OVCAR3 (CyQUANT Direct); format: cell-based; details: Homo sapiens, OVCAR-3, 72 h, 3 days incubation, CyQUANT fluorescence detection, read-out: OVCAR-3 Cell Viability_IC50_nM
Experimental: Materials and Cells: OVCAR3 cells were purchased from Nanjing Cobioer Biosciences Co., Ltd. RPMI-1640 medium, fetal bovine serum, and the CyQUANT Direct Cell Proliferation Assay kit were purchased from Thermo Fisher Scientific, USA; 96-well cell culture plates were sourced from Corning, USA.
Cell Culture: Culture OVCAR3 cells with RPMI-1640 medium containing […] and incubate them in a […] incubator at 37° C. Only cells in the logarithmic growth phase can be used for the test.
Inoculate OVCAR3 cells into a 96-well cell culture plate at 90 μL per well and incubate overnight in a […] incubator at 37° C. Dissolve the compound powder in DMSO to prepare a stock solution of 10 mM. Then perform gradient dilution for the compounds in the microplate to achieve a final concentration of 0-10 μM. Add 10 μL of cell culture medium containing compounds to each well to make the final DMSO content 0.20%. Incubate the cell plates in a […] incubator at 37° C. for 3 days. Add 100 μL of CyQUANT detection reagent to each well, react at 37° C. for 60 min, and perform fluorescence detection using the PerkinElmer Envision.

HT29 cells = assay: CyQuant cell proliferation activity test, HT29; format: cell-based; details: Homo sapiens, HT-29, 72 h, HT29 2000 cells per well, 3 days incubation, initial concentration 3000 nM, IC50 by XLFIT, read-out: HT-29 Cell Viability_IC50_nM
Experimental: Materials and Cells: HT29 cells were purchased from Nanjing Cobioer Biosciences Co., Ltd.; RPM-1640 medium, fetal bovine serum, Trypsin-EDTA (0.25%), DMSO, 96-well plates, and CyQuant reagents were purchased from ThermoFisher (USA).
Cell Culture: Culture HT29 cells with RPMI-1640 containing 10% fetal bovine serum under the condition of 37° C. and 5% CO2. Only cells in the logarithmic growth phase can be used for the test.
Cell Proliferation Activity Test: Use the CyQuant reagent to detect the proliferation inhibitory activity of compounds on HT29 cells. Adjust the cell density and inoculate 100 μL per well into the 96-well plate (HT29 at 2000 cells per well), then incubate overnight under the condition of 37° C. and […]. Add compounds of various target concentrations (initial concentration of 3000 nM, 3-fold dilution, 9 concentration gradients), and make the DMSO content 0.20%. Incubate the cell plates at 37° C. and 5% CO2 for 3 days. Incubate with CyQuant reagent for 1 h, read the plate by Envision, and calculate IC50 using XLFIT.

Row | SMILES | IC50 [1] | IC50 (OVCAR3 cells) | IC50 (HT29 cells)
1 | CC(C)(O)c1ccc(-c2cn(-c3ccc(NS(=O)(=O)CCO)cc3N3CCC4(CC3)CC4)nn2)nc1N1CCC(F)(F)CC1 [Example 70, N-(4-(4-(6-(4,4-difluoropiperidin-1-yl)-5-(2-hydroxypropan-2-yl)pyridin-2-yl)-1H-1,2,3-triazol-1-yl)-3-(6-azaspiro[2.5]octan-6-yl)phenyl)-2-hydroxyethanesulfonamide] | 1230 nM | 582 nM | 700 nM
2 | O=S(=O)(CCO)Nc1ccc(-n2cc(-c3cc(N4CCC(F)(F)CC4)c4nnccc4c3)nn2)c(N2CCC3(CC2)CC3)c1 [Example 76, N-(4-(4-(8-(4,4-difluoropiperidin-1-yl)cinnolin-6-yl)-1H-1,2,3-triazol-1-yl)-3-(6-azaspiro[2.5]octan-6-yl)phenyl)-2-hydroxyethane-1-sulfonamide] | 75 nM | 12 nM | 16 nM
3 | Cc1cc(-c2cn(-c3ccc(NS(=O)(=O)CCO)cc3N3CCC4(CC3)CC4)nn2)cc(-c2cnn(C)c2)n1 [Example 39, 2-hydroxy-N-(4-(4-(2-methyl-6-(1-methyl-1H-pyrazol-4-yl)pyridin-4-yl)-1H-1,2,3-triazol-1-yl)-3-(6-azaspiro[2.5]octan-6-yl)phenyl)ethane-1-sulfonamide] | 414 nM | 1330 nM | 1570 nM
4 | COc1cc(-c2nnc(-c3ccc(NS(=O)(=O)CCO)cc3N3CCC4(CC3)CC4)o2)cc(N2CCC(F)(F)CC2)n1 [Example 22, N-(4-(5-(2-(4,4-difluoropiperidin-1-yl)-6-methoxypyridin-4-yl)-1,3,4-oxadiazol-2-yl)-3-(6-azaspiro[2.5]octan-6-yl)phenyl)-2-hydroxyethane-1-sulfonamide] | 46 nM | 34 nM | 23 nM
5 | O=S(=O)(CCO)Nc1ccc(-c2nnc(-c3cc4cccnc4c(N4CCC(F)(F)CC4)n3)o2)c(N2CCC3(CC2)CC3)c1 [Example 29, N-(4-(5-(8-(4,4-difluoropiperidin-1-yl)-1,7-naphthyridin-6-yl)-1,3,4-oxadiazol-2-yl)-3-(6-azaspiro[2.5]octan-6-yl)phenyl)-2-hydroxyethanesulfonamide] | 48 nM | 37 nM | 45 nM
6 | O=S(=O)(CCO)Nc1ccc(-c2cn(-c3cc(N4CCC(F)(F)CC4)c4ncccc4c3)nn2)c(N2CCC3(CC2)CC3)c1 [Example 94, N-(4-(1-(8-(4,4-difluoropiperidin-1-yl)quinolin-6-yl)-1H-1,2,3-triazol-4-yl)-3-(6-azaspiro[2.5]octan-6-yl)phenyl)-2-hydroxyethane-1-sulfonamide] | 227 nM | 92 nM | 57 nM
7 | Cc1cc(-c2cn(-c3ccc(NS(=O)(=O)CCO)cc3N3CCC4(CC3)CC4)nn2)nc(N2CCOCC2)n1 [Example 42, 2-hydroxy-N-(4-(4-(6-methyl-2-morpholinopyrimidin-4-yl)-1H-1,2,3-triazol-1-yl)-3-(6-azaspiro[2.5]octan-6-yl)phenyl)ethanesulfonamide] | 19 nM | 12 nM | 15 nM
8 | O=S(=O)(CCO)Nc1ccc(-n2cc(-c3cc(NCc4cccnc4)nc(N4CCC(F)(F)CC4)n3)nn2)c(N2CCC3(CC2)CC3)c1 [Example 60, N-(3-{6-azaspiro[2.5]octan-6-yl}-4-{4-[2-(4,4-difluoropiperidin-1-yl)-6-{[(pyridine-3-yl)methyl]amino}pyrimidin-4-yl]-1H-1,2,3-triazol-1-yl}phenyl)-2-hydroxyethane-1-sulfonamide] | 433 nM | 29 nM | 41 nM

More lines, now with the values ahead:

Row | IC50 [1] | IC50 (OVCAR3 cells) | IC50 (HT29 cells) | SMILES
9 | 38 nM | 62 nM | 77 nM | Cc1cc(-c2nnc(-c3ccc(NS(=O)(=O)CCO)cc3N3CCC4(CC3)CC4)[nH]2)nc(N2CCC(F)(F)CC2)n1 [Example 4, N-(4-(5-(2-(4,4-difluoropiperidin-1-yl)-6-methylpyrimidin-4-yl)-4H-1,2,4-triazol-3-yl)-3-(6-azaspiro[2.5]octan-6-yl)phenyl)-2-hydroxyethane-1-sulfonamide]
10 | 16 nM | 44 nM | 62 nM | COc1cc(-n2cc(-c3ccc(NS(=O)(=O)CCO)cc3N3CCC4(CC3)CC4)nn2)nc(N2CCC(F)(F)CC2)n1 [Example 90, N-(3-{6-azaspiro[2.5]octan-6-yl}-4-{1-[2-(4,4-difluoropiperidin-1-yl)-6-methoxypyrimidin-4-yl]-1H-1,2,3-triazol-4-yl}phenyl)-2-hydroxyethane-1-sulfonamide]
11 | 131 nM | 24 nM | 22 nM | COc1cc(-c2cn(-c3ccc(NS(=O)(=O)CCO)cc3N3CCC4(CC3)CC4)nn2)nc(N2CCC(F)(F)CC2)n1 [Example 51, N-(4-(4-(2-(4,4-difluoropiperidin-1-yl)-6-methoxypyrimidin-4-yl)-1H-1,2,3-triazol-1-yl)-3-(6-azaspiro[2.5]octan-6-yl)phenyl)-2-hydroxyethanesulfonamide]
12 | 40 nM | 3 nM | 3 nM | Nc1cc(-c2cn(-c3ccc(NS(=O)(=O)CCO)cc3N3CCC4(CC3)CC4)nn2)nc(N2CCC(F)(F)CC2)n1 [Example 55, N-(4-{4-[6-amino-2-(4,4-difluoropiperidin-1-yl)pyrimidin-4-yl]-1H-1,2,3-triazol-1-yl}-3-{6-azaspiro[2.5]octan-6-yl}phenyl)-2-hydroxyethane-1-sulfonamide]
13 | 775 nM | 496 nM | 250 nM | Cc1cc(-c2nnn(-c3ccc(NS(=O)(=O)CCO)cc3N3CCC4(CC3)CC4)n2)nc(N2CCC(F)(F)CC2)n1 [Example 8, N-(4-(5-(2-(4,4-difluoropiperidin-1-yl)-6-methylpyrimidin-4-yl)-2H-tetrazol-2-yl)-3-(6-azaspiro[2.5]octan-6-yl)phenyl)-2-hydroxyethane-1-sulfonamide]
14 | > 3000 nM | 464 nM | 568 nM | Cc1cc(-n2cnc(-c3ccc(NS(=O)(=O)CCO)cc3N3CCC4(CC3)CC4)c2)nc(N2CCC(F)(F)CC2)n1 [Example 12, N-(4-(1-(2-(4,4-difluoropiperidin-1-yl)-6-methylpyrimidin-4-yl)-1H-imidazol-4-yl)-3-(6-azaspiro[2.5]octan-6-yl)phenyl)-2-hydroxyethane-1-sulfonamide]
15 | 251 nM | 46 nM | 56 nM | Cc1cc(-c2cn(-c3ccc(NS(=O)(=O)CCO)cc3N3CCC4(CC3)CC4)cn2)nc(N2CCC(F)(F)CC2)n1 [Example 10, N-(4-(4-(2-(4,4-difluoropiperidin-1-yl)-6-methylpyrimidin-4-yl)-1H-imidazol-1-yl)-3-(6-azaspiro[2.5]octan-6-yl)phenyl)-2-hydroxyethane-1-sulfonamide]
16 | 61 nM | 36 nM | 40 nM | Cc1cc(-n2cc(-c3ccc(NS(=O)(=O)CCO)cc3N3CCC4(CC3)CC4)nn2)nc(N2CCC(F)(F)CC2)n1 [Example 89, N-(4-(1-(2-(4,4-difluoropiperidin-1-yl)-6-methylpyrimidin-4-yl)-1H-1,2,3-triazol-4-yl)-3-(6-azaspiro[2.5]octan-6-yl)phenyl)-2-hydroxyethanesulfonamide]
